# Source: US8741840B2, “BMP-7 for use in treating neointimal hyperplasia” (Washington University, priority 2008, dated 2014)
# B1: Noggin: bone morphogenetic protein specific inhibitor (BMP-2 antagonist), from Pepro Tech. (protein, UniProt Q13253 28-232, looked up)
# Noggin: QHYLHIRPAPSDNLPLVDLIEHPDPIFDPKEKDLNETLLRSLLGGHYDPGFMATSPPEDRPGGGGGAAGGAEDLAELDQLLRQRPSGAMPSEIKGLEFSEGLAQGKKQRLSKKLRRKLQMWLWSQTFCPVLYAWNDLGSRFWPRYVKVGSCFSKRSCSVPEGMVCKPSKSVHLTVLRWRCQRRGGQRCGWIPIQYPIISECKCSC
# Tests used:
# [1] = tested on: LDLR−/− high fat fed mice; test: Histology of proximal aorta (alizarin red): calcified atherosclerotic plaques; assay type: in vivo, mouse; conditions: for size of the atherosclerotic lesions: proximal aorta (FIG. 3); for plaque associated calcium deposition: proximal aorta, alizarin red stain (FIG. 3)
# From the text: Tissue Preparation: Resected specimens were flash frozen in liquid nitrogen, then divided as follows: the heart, ascending aorta and aortic arch were separated from the descending aorta, and bisected sagittally through the aortic outflow tract. The descending aorta was bisected coronally, approximately halfway along its length. In order to visualize calcification in the tissue sections, Slices (5 μm thick) were cut and stained with von Kossa and Trap staining.
# Additional mice were enrolled to the study for qualitative analysis of aortas to quantitate the effects of the treatments, because aortas of the experimental animals were destroyed by the technique of quantifying the aortic calcium content. Vascular calcification was largely aortic atherosclerotic plaque associated (FIG. 3), and punctate calcifications in the tunica media were observed. Panel A: Large lipid laden plaque (between arrows) in proximal aorta of a sham-operated high fat fed LDLR−/− mouse. Thick arrows identify focal calcifications in the base of the plaque. Panel B: A large calcified plaque (between arrows) in the proximal aorta of a CKD high fat fed LDLR−/− mouse. Panel C: A large lipid laden plaque (between arrows) in the proximal aorta of a BMP-7 treated CKD high fat fed LDLR−/− mouse. The stain is alizarin red. Magnification is 400× in A-C.
# [2] = Blood tests: serum biochemical parameters in the various groups of animals; assay type: in vivo, mouse; conditions: serum; LDLR-/-, fat diet, CKD, 28 weeks post natal; BMP-7 10 μg/kg IP weekly or binder 3% in diet
# Protocol: Animals were sacrificed under anesthesia 28 weeks post natal. At the time of sacrifice, blood was taken by intracardiac stab, and the heart and aorta dissected en bloc. The BMP-7 treated group received intraperitoneal injection of BMP-7 10 μg/kg dry weight once weekly in 100 μl vehicle [mannitol (5% w/v), NaAcetate buffer (20 mM, pH 4.0-4.5), sterile water].
# Animals were allocated to one of seven CKD high fat fed groups after the second surgery: Other control Groups included LDLR−/− sham operated mice on chow diet, and LDLR−/− mice with CKD on chow diet. C57B16 WT mice fed chow served as the normal benchmark source. […] Group 1 were LDLR−/− mice on the high fat diet sacrificed at 22 weeks. Group 2 were LDLR−/− mice with CKD fed the high fat diet and treated weekly from 22 to 28 weeks with vehicle IP. […] Group 3 was the first treatment group. These were LDLR−/− mice with CKD on high fat diet that received BMP-7 treatment (10 μg/kg IP weekly). Group 4 were LDLR−/− mice with CKD on high fat diet treated with sevelamer CO3 1%. Group 5 were LDLR−/− mice with CKD on high fat diet treated with sevelamer CO3 3%. […] Once the mice were randomized into groups, they were allowed to develop calcification from weeks 14 through weeks 22 post natal. Therapy was initiated at 23 weeks postnatal and continued until week 28 postnatal at which time the mice were examined.
# Blood tests: Serum was analyzed on the day of blood draw for blood urea nitrogen [BUN], cholesterol, calcium and phosphate by standard laboratory methods. Before initiation of therapy, blood was obtained through saphenous vein. At the time of sacrifice, blood was obtained through intracardiac stab.
# [3] = tested on: human vascular smooth muscle cells (hVSMC) isolated from atherosclerotic donors; test: Phosphorus stimulated matrix mineralization (matrix Ca content) in hVSMC cultures; assay type: cell-based; conditions: Noggin 10-100 ng/ml added to high phosphorus media (FIG. 6A)
# Protocol: (§1) Cell Culture: Human adult aorta were obtained from seven cadaveric organ donors rejected because of atherosclerosis by Mid-America Transplant Services (St. Louis, Mo.) and enzymatically digested to obtain Human Smooth Muscle Cells (HSMC). Medial tissue was separated from the adventia and intima and digested with collagenase type I (Worthington, Lakewood, N.J.) 2 mg/ml for 1 hr, and washed with Hank's balanced salt solution (HBSS). Further digestion followed with collagenase type II 1 mg/ml (Worthington, Lakewood, N.J.) and elastase 0.25 mg/ml (Worthington, Lakewood, N.J.) for 4 hrs. Cell suspensions were washed twice with HBSS and cultured in T-75 flasks for three weeks in a 95%/5% air/CO2 humidified environment at 37° C. The growth medium used was DMEM containing […] glucose (high glucose), 10% fetal bovine serum (FBS, Atlas, Fort Collins, Colo.), 1 mM sodium pyruvate, 100 units/ml Penicillin and […] Streptomycin (Sigma, St Louis, Mo.). Cell purity was assessed by positive immunostaining for α-smooth muscle actin and calponin and for the absence of von Willebrand factor. In all experimental protocols, cells were seeded at 1×10^5 cells/well in six-well plates. Medium was changed on the first day and every third day thereafter. In all cases, cells used were between passages two and five (Table 3).
# Induction of Calcification: At the time of confluence, cells were switched to mineralization medium consisting of DMEM supplemented with 1 or 2 mM Pi. For cells exposed to BMP-7 treatment, fresh mineralization medium containing either vehicle (mannitol, acetic acid, acetate) or BMP-7 in vehicle was added at 0.1, 1.0, 10, or 100 ng/ml. The medium was changed every two or three days. […] Calcium content was quantified and normalized to cellular protein as described. (Jono 2000; Moe S. M. et al., Kidney Int 67:2295-2304, 2005)^11;52
# In vitro matrix mineralization. […]
# hVSMC = test: RT-PCR of osteoblastic differentiation program genes in hVSMC; assay type: cell-based, human; conditions: Noggin 100 ng/ml, high phosphorus media (FIG. 6B)
# Protocol: as §1
# RT-PCR: RNA was extracted from cell cultures using RNeasy Mini Kits (Qiagen, Valencia, Calif.). Semi-quantitative RT-PCR was conducted using Roche 1st Strand cDNA Synthesis Kit (Indianapolis, Ind.) and PCR kit from Invitrogen (Grand Island, N.Y.) according to manufacturer's instructions using a two-step method. 1 μg of total RNA was reverse transcribed and random primers were added for 60 min at 42° C., prior to PCR. Forward and Reverse primers (Table 4) were added and the reactions subjected to PCR for 20-35 cycles. The number of cycles necessary to amplify cDNA but remain within the exponential amplification range was determined for each primer set. GAPDH was used as internal standard to assess loading. Genomic contamination was assessed by heat inactivation of the reverse transcriptase prior to RT-PCR. Primers were designed using Vector NTI soft ware (Invitrogen, Grand Island, N.Y.) and optimal conditions for each prime pairs were determined (Table 4). A Perkin-Elmer DNA Thermal Cycler was used to perform the reaction. Products were separated on a 2% agarose E-gel (Invitrogen, Grand Island, N.Y.), and visualized with ethidium bromide. The band intensity was analyzed first by scanning the gel on a Typhoon 9410 gel imager (Amersham Biosciences), quantified by using TotalLab software v2003.03 (Nonlinear Dynamics, Durham, N.C.) and normalized for loading by comparison to GAPGH. Negative controls were performed by inactivating the reverse transcriptase by boiling for 5 min prior to RT-PCR to insure that genomic DNA was not amplified.
# Stimulation of osteoblastic differentiation through osterix induction. […] Osterix (E) was only weakly expressed in basal culture conditions. Phosphorus stimulated transcription of osterix (E). […] The data in A-E were normalized to the expression level in basal culture conditions and expressed as fold induction, mean±SEM, n=3. In: Principles of Bone Biology, edited by Bilezikian J P et al., New York, Academic Press, 1996, pp 51-67; Hoffmann H M et al., Proc. Nat. […]
Molecule,size of the atherosclerotic lesions [1],plaque associated calcium deposition [1],Phosphorus [2],matrix mineralization stimulated by phosphorus [3],phosphorus induced osterix expression (hVSMC)
"O=C([O-])[O-].O=C([O-])[O-].O=C([O-])[O-].[La+3].[La+3] [Lanthanum, LaCO3]",did not decrease the size of the atherosclerotic lesions,diminished plaque associated calcium deposition,9.7 ± .4 mg/dL,–,–
O=C([O-])[O-].[Ca+2] [CaCO3],did not decrease the size of the atherosclerotic lesions,diminished plaque associated calcium deposition,–,–,–
B1,–,–,–,inhibited matrix mineralization stimulated by phosphorus,blocked phosphorus induced osterix expression
